Experimental data: PMC6692352, “DF2726A, a new IL-8 signalling inhibitor, is able to counteract chemotherapy-induced neuropathic pain” (Scientific Reports, 2019)
pIC50: −log10 of the molar value.

Experiments:
p-JAK2 = p-JAK2 western blotting in F11-derived neurons; assay type: cell-based; conditions: 24 h
PI3K and p-Akt = PI3K and p-Akt western blotting in F11-derived neurons; assay type: cell-based; conditions: DF2726A 1 µM + oxaliplatin 20 µM, 24 h
Protocol: (§1) Following neuronal differentiation, neurons were treated for 24 h with DF2726A (1 μM final concentration), oxaliplatin (Sigma-Aldrich; 20 µM final concentration), or the combination of the two molecules.
(§2) Control and treated cells were collected and lysed in ice-cold RIPA buffer (PBS pH 7.4 containing 0.5% sodium deoxycolate, 1% Igepal, 0.1% SDS, 5 mM EDTA, 1% protease and phosphatase inhibitor cocktails; Sigma-Aldrich) as described in[22],[33]. Protein lysates (30 μg) were separated on 8–12% SDS-polyacrilamide gel and electroblotted onto polyvinyldifluoride membrane (PVDF; Sigma-Aldrich). Nonspecific binding sites were blocked by 5% non-fat dry milk (Bio-Rad Laboratories, Hercules, CA, USA) in Tris buffered saline (TBS: 20 mM Tris- HCl, pH 7.4, containing 150 mM NaCl) for 30 min at RT. […] The relative densities of immunoreactive bands were determined and normalized HRP-conjugated β-actin, using ImageJ software. […]

CYP 2C9 = CYP 2C9 (Homo sapiens, UniProt P11712); assay: CYP inhibition 2C9; assay type: in vitro ADME
Sequence of CYP 2C9 (P11712 whole entry): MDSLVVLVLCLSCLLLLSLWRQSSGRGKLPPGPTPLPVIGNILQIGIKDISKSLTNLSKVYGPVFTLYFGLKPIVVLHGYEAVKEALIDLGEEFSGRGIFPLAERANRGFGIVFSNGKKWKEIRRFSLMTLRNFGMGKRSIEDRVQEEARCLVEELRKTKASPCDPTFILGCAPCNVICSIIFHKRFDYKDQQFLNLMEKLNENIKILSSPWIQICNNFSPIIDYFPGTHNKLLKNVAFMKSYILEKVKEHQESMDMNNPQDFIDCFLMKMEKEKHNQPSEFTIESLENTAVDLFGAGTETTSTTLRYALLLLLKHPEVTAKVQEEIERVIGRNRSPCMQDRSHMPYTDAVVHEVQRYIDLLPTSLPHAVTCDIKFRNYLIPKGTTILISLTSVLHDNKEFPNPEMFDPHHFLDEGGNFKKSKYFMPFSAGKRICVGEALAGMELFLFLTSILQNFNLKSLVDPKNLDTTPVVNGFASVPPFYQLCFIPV
Text: Table 1 Physicochemical and in Vitro ADME Properties of DF2726A. | column: DF2726A

p-STAT3 = p-STAT3 western blotting in F11-derived neurons; assay type: cell-based; conditions: 24 h
Protocol: as §1, §2

[1] = system: oxaliplatin-induced mechanical allodynia; assay: Oxaliplatin-induced mechanical allodynia (Dynamic Plantar Aesthesiometer); assay type: in vivo, male Wistar rats; conditions: 30 mg/kg os for 24 days; at 14 (P < 0.05) and 21 days (P < 0.01) vs Oxa + saline
Protocol: Behavioural tests were performed on male Wistar rats (200–250 g, Harlan, Italy) housed in the animal care facility at the Department of Pharmacy of the University of Naples Federico II, Italy, as previously described. Animals were housed, in a group of five, in a room with controlled temperature (22 ± 1 °C), humidity (60 ± 10%) and light (12 h per day); food and water were available ad libitum. All animals were weighted on the day of each treatment. All behavioural tests were performed between 09:00 and 17:00 h, and the animals were used only once. Animal care and manipulations were conducted in conformity with International and National law and policies (EU Directive 2010/63/EU for animal experiments, ARRIVE guidelines, and the Basel declaration including the 3R concept). The procedures reported here were approved by the Institutional Committee on the Ethics of Animal Experiments (CVS) of the University of Naples Federico II and by Ministero della Salute under protocol no. 2014-00884607. […]
To assess for changes in sensation or in the development of mechanical allodynia, sensitivity to tactile stimulation was measured using the Dynamic Plantar Aesthesiometer (DPA, Ugo Basile, Italy), which is an automated version of the von Frey hair assessment. […] The means of paw withdrawal (expressed in grams) were calculated from an average of four separate measurements. […]

[2] = DF2726A 1 µM + oxaliplatin 20 µM

Compound: CC(C)(C(=O)O)c1ccc(Nc2nc(C(F)(F)F)cs2)cc1 [DF2726A]
- p-JAK2, oxaliplatin-treated neurons (p-JAK2; [2]): restored control conditions
- p-JAK2, paclitaxel-treated neurons (p-JAK2; DF2726A + paclitaxel 10 nM): restored control conditions
- PI3K and p-Akt protein levels, oxaliplatin-treated neurons (PI3K and p-Akt): comparable to those of control cells
- pIC50 (CYP 2C9): < 4.52
- p-STAT3 levels, oxaliplatin-treated neurons (p-STAT3; [2]): counteracted this effect
- p-STAT3 levels, paclitaxel-treated neurons (p-STAT3; DF2726A + paclitaxel 10 nM): counteracted this effect
- Effect on oxaliplatin-induced mechanical allodynia (paw withdrawal threshold, DPA test) [1]: significant anti-allodynic effect
